In ChEMBL document CHEMBL4257221, “Peptides comprising non-natural amino acids and methods of making and using the same” (2016):
Numbered stars: 1 amine (or outer) side, 2 acyl side, 3 side chain; on linkers, the order of the positions; unused ones are H or OH. Square brackets hold non-standard residues; d marks the D form. Peptide text beside a SMILES is read from it. ξ: configuration not given here. X1 = O=C([C@H]1CCC[C@@H]1N[*:1])[*:2]; X2 = O=C([C@H]1CNC[C@@H]1N[*:1])[*:2]; ξβ3hY = NC(CC(=O)O)Cc1ccc(O)cc1; β3hN = NC(=O)C[C@H](N)CC(=O)O; β3hV = CC(C)[C@H](N)CC(=O)O; ξβ3hL = CC(C)CC(N)CC(=O)O; ξβ3hK = NCCCCC(N)CC(=O)O; Aib = CC(C)(N)C(=O)O; βAla = NCCC(=O)O

Experiments:
[1] = molecular target: T1, Vasoactive intestinal polypeptide receptor 2 (Homo sapiens, UniProt P41587); test: Agonist activity at human VIPR2 expressed in CHOK1 cells assessed as intracellular cAMP accumulation after 60 mins by PathHunter assay; type: functional, cell-based
T1 sequence (P41587 whole entry): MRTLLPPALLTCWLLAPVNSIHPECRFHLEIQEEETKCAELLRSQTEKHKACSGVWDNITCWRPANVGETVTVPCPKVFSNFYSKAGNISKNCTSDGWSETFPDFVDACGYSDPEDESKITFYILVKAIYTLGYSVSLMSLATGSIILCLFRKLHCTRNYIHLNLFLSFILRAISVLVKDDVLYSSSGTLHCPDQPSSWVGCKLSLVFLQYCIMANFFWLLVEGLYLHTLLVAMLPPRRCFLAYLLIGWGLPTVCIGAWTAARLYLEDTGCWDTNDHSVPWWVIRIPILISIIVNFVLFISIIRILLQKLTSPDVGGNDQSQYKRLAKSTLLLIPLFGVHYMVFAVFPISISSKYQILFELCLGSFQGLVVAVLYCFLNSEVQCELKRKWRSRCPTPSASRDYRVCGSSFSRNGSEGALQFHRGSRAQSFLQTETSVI

[2] = molecular target: T2, Vasoactive intestinal polypeptide receptor 1 (Homo sapiens, UniProt P32241); test: Agonist activity at human VIPR1 expressed in CHOK1 cells assessed as intracellular cAMP accumulation after 60 mins by PathHunter assay; type: functional, cell-based
T2 sequence (P32241 whole entry): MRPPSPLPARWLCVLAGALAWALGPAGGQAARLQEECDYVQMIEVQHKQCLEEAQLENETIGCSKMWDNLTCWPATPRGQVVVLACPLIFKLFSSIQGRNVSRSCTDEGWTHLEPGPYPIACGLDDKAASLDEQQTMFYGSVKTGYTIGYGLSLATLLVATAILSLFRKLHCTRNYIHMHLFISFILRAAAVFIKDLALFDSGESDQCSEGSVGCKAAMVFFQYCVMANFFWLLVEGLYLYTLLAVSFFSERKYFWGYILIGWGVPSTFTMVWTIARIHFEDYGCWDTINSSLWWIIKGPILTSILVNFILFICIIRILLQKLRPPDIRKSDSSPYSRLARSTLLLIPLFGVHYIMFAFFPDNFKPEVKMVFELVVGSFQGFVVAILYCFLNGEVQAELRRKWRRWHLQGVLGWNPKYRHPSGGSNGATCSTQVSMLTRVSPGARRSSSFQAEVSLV

SMILES	EC50 [1]	EC50 [2]
CC(=O)N[C@@H](Cc1cnc[nH]1)C(=O)NC(C)(C)C(=O)N[C@@H](CC(=O)O)C(=O)N[C@@H](C)C(=O)N[C@H](CC(=O)N[C@@H](Cc1ccccc1)C(=O)N[C@H](C(=O)N[C@@H](CCC(=O)O)C(=O)N[C@@H](CC(N)=O)CC(=O)N[C@@H](Cc1ccc(O)cc1)C(=O)N[C@H](C(=O)N[C@@H](CCCCN)C(=O)N[C@@H](CC(C)C)C(=O)N[C@@H](CCCNC(=N)N)C(=O)N[C@@H](CCCCN)C(=O)N[C@@H](CCC(N)=O)C(=O)N[C@@H](CC(C)C)C(=O)N[C@@H](C)C(=O)N[C@@H](C)C(=O)N[C@H]1CNC[C@@H]1C(=O)N[C@@H](CCCCN)C(=O)N[C@@H](Cc1ccc(O)cc1)C(=O)N[C@H]1CCC[C@@H]1C(=O)N[C@@H](CC(N)=O)C(=O)N[C@@H](CC(=O)O)C(=O)N[C@@H](CC(C)C)C(=O)NC(CCCCN)CC(=O)N[C@@H](CCCCN)C(=O)NCC(=O)NCCC(=O)N[C@H](C(=O)O)[C@@H](C)O)[C@@H](C)O)[C@@H](C)O)C(C)C (stereo partly drawn) (Ac-H[Aib]DA[β3hV]FTE[β3hN]YTKLRKQLAA[X2]KY[X1]NDL[ξβ3hK]KG[βAla]T-OH)	3.47 nM	> 1000 nM
CC(=O)N[C@@H](Cc1cnc[nH]1)C(=O)N[C@H]1CCC[C@@H]1C(=O)N[C@@H](CC(=O)O)C(=O)N[C@@H](C)C(=O)N[C@H]1CCC[C@@H]1C(=O)N[C@@H](Cc1ccccc1)C(=O)N[C@H](C(=O)N[C@@H](CCC(=O)O)C(=O)N[C@H]1CCC[C@@H]1C(=O)N[C@@H](Cc1ccc(O)cc1)C(=O)N[C@H](C(=O)N[C@@H](CCCCN)C(=O)N[C@@H](CC(C)C)C(=O)N[C@@H](CCCNC(=N)N)C(=O)N[C@@H](CCCCN)C(=O)N[C@@H](CCC(N)=O)C(=O)N[C@@H](CC(C)C)C(=O)N[C@@H](C)C(=O)N[C@@H](C)C(=O)N[C@H]1CNC[C@@H]1C(=O)N[C@@H](CCCCN)C(=O)N[C@@H](Cc1ccc(O)cc1)C(=O)N[C@H]1CCC[C@@H]1C(=O)N[C@@H](CC(N)=O)C(=O)N[C@@H](CC(=O)O)C(=O)N[C@@H](CC(C)C)C(=O)NC(CCCCN)CC(=O)N[C@@H](CCCCN)C(=O)NCC(=O)NCCC(=O)N[C@H](C(=O)O)[C@@H](C)O)[C@@H](C)O)[C@@H](C)O (stereo partly drawn) (Ac-H[X1]DA[X1]FTE[X1]YTKLRKQLAA[X2]KY[X1]NDL[ξβ3hK]KG[βAla]T-OH)	5.58 nM	> 1000 nM
CC(=O)N[C@@H](Cc1cnc[nH]1)C(=O)N[C@H]1CCC[C@@H]1C(=O)N[C@@H](CC(=O)O)C(=O)N[C@@H](C)C(=O)N[C@H]1CCC[C@@H]1C(=O)N[C@@H](Cc1ccccc1)C(=O)N[C@H](C(=O)N[C@@H](CCC(=O)O)C(=O)N[C@H]1CCC[C@@H]1C(=O)NC(CC(=O)N[C@H](C(=O)N[C@@H](CCCCN)C(=O)N[C@@H](CC(C)C)C(=O)N[C@@H](CCCNC(=N)N)C(=O)N[C@@H](CCCCN)C(=O)N[C@@H](CCC(N)=O)C(=O)NC(CC(=O)N[C@@H](C)C(=O)N[C@@H](C)C(=O)N[C@H]1CNC[C@@H]1C(=O)N[C@@H](CCCCN)C(=O)N[C@@H](Cc1ccc(O)cc1)C(=O)N[C@H]1CCC[C@@H]1C(=O)N[C@@H](CC(N)=O)C(=O)N[C@@H](CC(=O)O)C(=O)N[C@@H](CC(C)C)C(=O)NC(CCCCN)CC(=O)N[C@@H](CCCCN)C(=O)NCC(=O)NCCC(=O)N[C@H](C(=O)O)[C@@H](C)O)CC(C)C)[C@@H](C)O)Cc1ccc(O)cc1)[C@@H](C)O (stereo partly drawn) (Ac-H[X1]DA[X1]FTE[X1][ξβ3hY]TKLRKQ[ξβ3hL]AA[X2]KY[X1]NDL[ξβ3hK]KG[βAla]T-OH)	1.17 nM	785 nM
CC(=O)N[C@@H](Cc1cnc[nH]1)C(=O)N[C@H]1CCC[C@@H]1C(=O)N[C@@H](CC(=O)O)C(=O)N[C@@H](C)C(=O)N[C@H]1CCC[C@@H]1C(=O)N[C@@H](Cc1ccccc1)C(=O)N[C@H](C(=O)N[C@@H](CCC(=O)O)C(=O)N[C@H]1CCC[C@@H]1C(=O)NC(CC(=O)N[C@H](C(=O)N[C@@H](CCCCN)C(=O)N[C@@H](CC(C)C)C(=O)N[C@@H](CCCNC(=N)N)C(=O)N[C@@H](CCCCN)C(=O)NCCC(=O)N[C@@H](CC(C)C)C(=O)N[C@@H](C)C(=O)N[C@@H](C)C(=O)N[C@H]1CNC[C@@H]1C(=O)N[C@@H](CCCCN)C(=O)N[C@@H](Cc1ccc(O)cc1)C(=O)N[C@H]1CCC[C@@H]1C(=O)N[C@@H](CC(N)=O)C(=O)N[C@@H](CC(=O)O)C(=O)N[C@@H](CC(C)C)C(=O)NC(CCCCN)CC(=O)N[C@@H](CCCCN)C(=O)NCC(=O)NCCC(=O)N[C@H](C(=O)O)[C@@H](C)O)[C@@H](C)O)Cc1ccc(O)cc1)[C@@H](C)O (stereo partly drawn) (Ac-H[X1]DA[X1]FTE[X1][ξβ3hY]TKLRK[βAla]LAA[X2]KY[X1]NDL[ξβ3hK]KG[βAla]T-OH)	1.02 nM	> 1000 nM

Now those with a lower EC50 [1], led by results:

EC50 [1]	EC50 [2]	SMILES
0.18 nM	218 nM	CC(=O)N[C@@H](Cc1cnc[nH]1)C(=O)N[C@@H](CO)C(=O)N[C@@H](CC(=O)O)C(=O)N[C@@H](C)C(=O)N[C@H](C(=O)N[C@@H](Cc1ccccc1)C(=O)N[C@H](C(=O)N[C@@H](CCC(=O)O)C(=O)N[C@@H](CC(N)=O)C(=O)N[C@@H](Cc1ccc(O)cc1)C(=O)N[C@H](C(=O)N[C@@H](CCCCN)C(=O)N[C@@H](CC(C)C)C(=O)N[C@@H](CCCNC(=N)N)C(=O)N[C@@H](CCCCN)C(=O)N[C@@H](CCC(N)=O)C(=O)N[C@H]1CCC[C@@H]1C(=O)N[C@@H](C)C(=O)N[C@@H](C)C(=O)N[C@H]1CNC[C@@H]1C(=O)N[C@@H](CCCCN)C(=O)N[C@@H](Cc1ccc(O)cc1)C(=O)N[C@@H](CC(C)C)C(=O)N[C@H]1CCC[C@@H]1C(=O)N[C@@H](CC(=O)O)C(=O)N[C@@H](CC(C)C)C(=O)NC(CCCCN)CC(=O)N[C@@H](CCCCN)C(=O)NCC(=O)NCC(=O)N[C@H](C(=O)O)[C@@H](C)O)[C@@H](C)O)[C@@H](C)O)C(C)C (stereo partly drawn) (Ac-HSDAVFTENYTKLRKQ[X1]AA[X2]KYL[X1]DL[ξβ3hK]KGGT-OH)
0.529 nM	516 nM	CC(=O)N[C@@H](Cc1cnc[nH]1)C(=O)NC(C)(C)C(=O)N[C@@H](CC(=O)O)C(=O)N[C@@H](C)C(=O)N[C@H](C(=O)N[C@@H](Cc1ccccc1)C(=O)N[C@H](C(=O)N[C@@H](CCC(=O)O)C(=O)N[C@@H](CC(N)=O)C(=O)N[C@@H](Cc1ccc(O)cc1)C(=O)N[C@H](C(=O)N[C@@H](CCCCN)C(=O)N[C@@H](CC(C)C)C(=O)N[C@@H](CCCNC(=N)N)C(=O)N[C@@H](CCCCN)C(=O)N[C@@H](CCC(N)=O)C(=O)N[C@@H](CC(C)C)C(=O)N[C@@H](C)C(=O)N[C@@H](C)C(=O)N[C@H]1CNC[C@@H]1C(=O)N[C@@H](CCCCN)C(=O)N[C@@H](Cc1ccc(O)cc1)C(=O)N[C@H]1CCC[C@@H]1C(=O)N[C@@H](CC(N)=O)C(=O)N[C@@H](CC(=O)O)C(=O)N[C@@H](CC(C)C)C(=O)NC(CCCCN)CC(=O)N[C@@H](CCCCN)C(=O)NCC(=O)NCCC(=O)N[C@H](C(=O)O)[C@@H](C)O)[C@@H](C)O)[C@@H](C)O)C(C)C (stereo partly drawn) (Ac-H[Aib]DAVFTENYTKLRKQLAA[X2]KY[X1]NDL[ξβ3hK]KG[βAla]T-OH)
0.816 nM	> 1000 nM	CC(=O)N[C@@H](Cc1cnc[nH]1)C(=O)NC(C)(C)C(=O)N[C@@H](CC(=O)O)C(=O)N[C@@H](C)C(=O)N[C@H](CC(=O)N[C@@H](Cc1ccccc1)C(=O)N[C@H](C(=O)N[C@@H](CCC(=O)O)C(=O)N[C@@H](CC(N)=O)C(=O)N[C@@H](Cc1ccc(O)cc1)C(=O)N[C@H](C(=O)N[C@@H](CCCCN)C(=O)N[C@@H](CC(C)C)C(=O)N[C@@H](CCCNC(=N)N)C(=O)N[C@@H](CCCCN)C(=O)N[C@@H](CCC(N)=O)C(=O)N[C@@H](CC(C)C)C(=O)N[C@@H](C)C(=O)N[C@@H](C)C(=O)N[C@H]1CNC[C@@H]1C(=O)N[C@@H](CCCCN)C(=O)N[C@@H](Cc1ccc(O)cc1)C(=O)N[C@H]1CCC[C@@H]1C(=O)N[C@@H](CC(N)=O)C(=O)N[C@@H](CC(=O)O)C(=O)N[C@@H](CC(C)C)C(=O)NC(CCCCN)CC(=O)N[C@@H](CCCCN)C(=O)NCC(=O)NCCC(=O)N[C@H](C(=O)O)[C@@H](C)O)[C@@H](C)O)[C@@H](C)O)C(C)C (stereo partly drawn) (Ac-H[Aib]DA[β3hV]FTENYTKLRKQLAA[X2]KY[X1]NDL[ξβ3hK]KG[βAla]T-OH)
0.593 nM	> 1000 nM	CC(=O)N[C@@H](Cc1cnc[nH]1)C(=O)N[C@H]1CCC[C@@H]1C(=O)N[C@@H](CC(=O)O)C(=O)N[C@@H](C)C(=O)N[C@H](C(=O)N[C@@H](Cc1ccccc1)C(=O)N[C@H](C(=O)N[C@@H](CCC(=O)O)C(=O)N[C@@H](CC(N)=O)C(=O)N[C@@H](Cc1ccc(O)cc1)C(=O)N[C@H](C(=O)N[C@@H](CCCCN)C(=O)N[C@@H](CC(C)C)C(=O)N[C@@H](CCCNC(=N)N)C(=O)N[C@@H](CCCCN)C(=O)N[C@@H](CCC(N)=O)C(=O)N[C@@H](CC(C)C)C(=O)N[C@@H](C)C(=O)N[C@@H](C)C(=O)N[C@H]1CNC[C@@H]1C(=O)N[C@@H](CCCCN)C(=O)N[C@@H](Cc1ccc(O)cc1)C(=O)N[C@H]1CCC[C@@H]1C(=O)N[C@@H](CC(N)=O)C(=O)N[C@@H](CC(=O)O)C(=O)N[C@@H](CC(C)C)C(=O)NC(CCCCN)CC(=O)N[C@@H](CCCCN)C(=O)NCC(=O)NCCC(=O)N[C@H](C(=O)O)[C@@H](C)O)[C@@H](C)O)[C@@H](C)O)C(C)C (stereo partly drawn) (Ac-H[X1]DAVFTENYTKLRKQLAA[X2]KY[X1]NDL[ξβ3hK]KG[βAla]T-OH)
